Columns and labels:
[1] = test system: giant foxtail; assay: Test A postemergence; type: in vivo, Setaria faberii; settings: 1000 g ai/ha, 0 to 100 scale, 0 no effect, 100 complete control
In short: (§1)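 Visual injury scored 0–100 (100 = complete control) against untreated controls about 10 days after treatment in a greenhouse. Test chemicals, formulated with surfactant in non-phytotoxic solvent, were sprayed on soil preemergence or on 2-10 cm, one- to two-leaf plants postemergence.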

[2] = test system: pigweed; assay: Test A postemergence; type: in vivo, Amaranthus retroflexus; settings: 1000 g ai/ha, 0 to 100 scale, 0 no effect, 100 complete control
In short: as §1

[3] = test system: kochia; assay: Test A postemergence; type: in vivo, Kochia scoparia; settings: 1000 g ai/ha, 0 to 100 scale, 0 no effect, 100 complete control
Source text: (§2) Seeds of plant species selected from barnyardgrass (Echinochloa crus-galli), kochia (Kochia scoparia), ragweed (common ragweed, Ambrosia elatior), Italian ryegrass (Lolium multiflorum), large (Lg) crabgrass (Digitaria sanguinalis), giant foxtail (Setaria faberii), morningglory (Ipomoea spp.), pigweed (Amaranthus retroflexus), velvetleaf (Abutilon theophrasti), wheat (Triticum aestivum), and corn (Zea mays) were planted into a blend of loam soil and sand and treated preemergence with a directed soil spray using test chemicals formulated in a non-phytotoxic solvent mixture which included a surfactant.
(§3) At the same time, plants selected from these crop and weed species and also blackgrass (Alopecurus myosuroides), and galium (catchweed bedstraw, Galium aparine) were planted in pots containing the same blend of loam soil and sand and treated with postemergence applications of test chemicals formulated in the same manner. Plants ranged in height from 2 to 10 cm and were in the one- to two-leaf stage for the postemergence treatment. Treated plants and untreated controls were maintained in a greenhouse for approximately 10 days, after which time all treated plants were compared to untreated controls and visually evaluated for injury. Plant response ratings, summarized in Table A, are based on a 0 to 100 scale where 0 is no effect and 100 is complete control. A dash (-) response means no test result.

[4] = test system: galium; assay: Test A postemergence; type: in vivo, Galium aparine; settings: 1000 g ai/ha, 0 to 100 scale, 0 no effect, 100 complete control
Source text: as §2, §3

[5] = test system: barnyardgrass; assay: Test A postemergence; type: in vivo, Echinochloa crus-galli; settings: 1000 g ai/ha, 0 to 100 scale, 0 no effect, 100 complete control
In short: as §1

[6] = test system: Italian ryegrass; assay: Test A preemergence; type: in vivo, Lolium multiflorum; settings: 1000 g ai/ha, 0 to 100 scale, 0 no effect, 100 complete control, approx. 10 days
Source text: as §2, §3

[7] = test system: kochia; assay: Test A preemergence; type: in vivo, Kochia scoparia; settings: 1000 g ai/ha, 0 to 100 scale, 0 no effect, 100 complete control, approx. 10 days
Source text: as §2, §3

[8] = test system: pigweed; assay: Test A preemergence; type: in vivo, Amaranthus retroflexus; settings: 1000 g ai/ha, 0 to 100 scale, 0 no effect, 100 complete control, approx. 10 days
In short: as §1

[9] = test system: ragweed; assay: Test A postemergence; type: in vivo, Ambrosia elatior; settings: 1000 g ai/ha, 0 to 100 scale, 0 no effect, 100 complete control
Source text: as §2, §3

[10] = test system: blackgrass; assay: Test A postemergence; type: in vivo, Alopecurus myosuroides; settings: 1000 g ai/ha, 0 to 100 scale, 0 no effect, 100 complete control
Source text: as §2, §3

[11] = test system: barnyardgrass; assay: Test A preemergence; type: in vivo, Echinochloa crus-galli; settings: 1000 g ai/ha, 0 to 100 scale, 0 no effect, 100 complete control; for Barnyardgrass plant response rating: approx. 10 days
In short: as §1

[12] = test system: wheat; assay: Test A postemergence; type: in vivo, Triticum aestivum; settings: 1000 g ai/ha, 0 to 100 scale, 0 no effect, 100 complete control
In short: as §1

[13] = test system: ragweed; assay: Test A preemergence; type: in vivo, Ambrosia elatior; settings: 1000 g ai/ha, 0 to 100 scale, 0 no effect, 100 complete control, approx. 10 days
Source text: as §2, §3

[14] = test system: Italian ryegrass; assay: Test A postemergence; type: in vivo, Lolium multiflorum; settings: 1000 g ai/ha, 0 to 100 scale, 0 no effect, 100 complete control
Source text: as §2, §3

[15] = test system: giant foxtail; assay: Test A preemergence; type: in vivo, Setaria faberii; settings: 1000 g ai/ha, 0 to 100 scale, 0 no effect, 100 complete control, approx. 10 days
In short: as §1

[16] = test system: corn; assay: Test A postemergence; type: in vivo, Zea mays; settings: 1000 g ai/ha, 0 to 100 scale, 0 no effect, 100 complete control
In short: as §1

Structure (SMILES)	Plant response rating, Foxtail, Giant [1]	Plant response rating, Pigweed [2]	Plant response rating, Kochia [3]	Plant response rating, Galium [4]	Plant response rating, Barnyardgrass [5]	Ryegrass, Italian plant response rating [6]	Kochia plant response rating [7]	Pigweed plant response rating [8]	Plant response rating, Ragweed [9]	Plant response rating, Blackgrass [10]	Plant response rating, Barnyardgrass [11]	Plant response rating, Wheat [12]	Ragweed plant response rating [13]	Plant response rating, Ryegrass, Italian [14]	Foxtail, Giant plant response rating [15]	Plant response rating, Corn [16]	Barnyardgrass plant response rating [11]
Fc1cccc(Oc2ncc(Cl)cn2)c1-n1cc(C2CCCCC2)nn1 [Compound 102]	40	80	30	70	50	0	0	20	20	40	50	0	0	0	100	20	–
O=Cc1cn(-c2c(F)cccc2Oc2ncc(Cl)cn2)nn1 [Compound 139]	0	30	0	10	0	0	0	50	0	0	–	0	0	0	0	20	0
CCNC(=O)c1cccc(Oc2ncc(Cl)cn2)c1-n1cc(C(F)(F)F)cn1 [Compound 257]	10	40	60	30	10	20	70	80	30	10	–	0	70	0	70	0	50

From US9695155B2, “Herbicidal substituted pyrimidinyloxy benzene compounds” (E. I. DU PONT DE NEMOURS AND COMPANY, priority 2013, dated 2017)
